Patent EP1020526B1, “Process for producing L-Threonine by fermentation” (priority 1992, dated 1994)
pIC50: −log10 of the molar value. ≈ marks a conversion by molar mass, not a printed value.

How the values were obtained:
GT3/pLYSC1 = experiment: Growth of completely AK-deficient GT3 strain possessing lysC plasmid on M9 minimal agar with added lysine or AEC; on Growth: key: +: growth; ±: some growth; -: no growth; assay type: cell-based, E. coli; details: for growth: M9 agar medium, 37°C, 2 day culturing; for MIC: Escherichia coli, GT3, M9 minimal agar plate medium, read-out: concentration at which growth was completely inhibited
Procedure: (§1) First, pLYSC1 and pLYSC2 were each incorporated into E. coli GT3 for its transformation to obtain two different transformants, and culturing was effected on an M9 minimal agar plate medium containing lysine or AEC. Also, the growth inhibition concentration of lysine or AEC was determined, and the conditions for selection of lysC* were investigated.

GT3/pLYSC2 = experiment: as above; assay type: cell-based, E. coli; details: M9 agar medium, 37°C, 2 day culturing; further: key: +: growth; ±: some growth; -: no growth
Procedure: as §1

[1] = biological target: T1, Escherichia coli aspartokinase III (AK III, lysC), wild type, SEQ ID NO: 1 (Escherichia coli, UniProt P08660); experiment: Aspartokinase (AK III) activity, lysine-dependent inhibition, crude enzyme, hydroxamate method of Stadtman et al.; assay type: biochemical
T1 construct: made in house; host or cells: E. coli GT3 (lacks AK I, II and III) carrying pLYSC1; cell-free extract, ammonium sulfate fraction
Procedure: (§2) A completely AK-deficient GT3 strain was used as the host in respect of which the above mentioned 14 mutant pLYSC1's (named the pLYSC1* series) and wild pLYSC1 plasmids were respectively used for transformation, after which a cell-free extract was prepared from the transformants and the enzyme activity of AK III was measured. The method for the measurement of the enzyme activity was as follows.
(§3) • (1) Culturing of cells in 2 x TY medium, followed by cell collection at O.D. 660 nm = approx. 0.8. • (2) Washing with 0.02 M KH2PO4 (pH 6.75) - 0.03 M β mercaptoethanol at 0°C. • (3) Sonic crushing of cells (0°C, 100 W, 30 sec x 4 times). • (4) Centrifugation at 0°C, 33 krpm for 1 hour, followed by addition of ammonium sulfate to supernatant to 80% saturation. • (5) Centrifugation, followed by dissolution of pellets in buffer of (2), and preservation (-20°C).
(§4) The method of measuring the enzyme activity was according to the method of Stadtman, et al. (Stadtman, E.R., Cohen, G.N., Lebras, G. and Robichon-Szulmajster, H., J. Biol. Chem., 236, 2033, 1961).
(§5) Table 5: Reaction solution composition
(§6) The measurement method is outlined in Table 6 below. Table 6: Outline of measurement method
(§7) For the measurement of the enzyme activity of AK, lysine was added to the enzyme reaction solutions at various concentrations, and the levels of lysine-dependent inhibition were determined.
(§8) In Table 7, the inhibition release is presented as the activity (%) in the presence of 100 mM of lysine with respect to the activity of a lysine-free reaction solution, and the thermal stability is presented as the maintenance of activity (%) after treatment at 55°C for 1.5 hours with respect to the activity without heating. Table 7: Inhibition release by lysine and thermal stability

[2] = biological target: T2, Escherichia coli aspartokinase III (AK III) mutant lysC* No. 117, 345 Ser→Leu (Escherichia coli, UniProt P08660, S345L); experiment: Aspartokinase (AK III) activity, lysine-dependent inhibition; assay type: biochemical
T2 construct: made in house; host or cells: E. coli GT3 carrying mutant pLYSC1*; cell-free extract
Procedure: as §2, §3, §4, §5, §6, §7, §8

[3] = biological target: T3, Escherichia coli aspartokinase III (AK III) mutant lysC* No. 149, 34 Arg→Cys, 323 Gly→Asp (Escherichia coli, UniProt P08660, G323D/R34C); experiment: as above; assay type: biochemical; details: activity in the presence of 100 mM of lysine with respect to lysine-free reaction solution
T3 construct: made in house; host or cells: E. coli GT3 carrying mutant pLYSC1*; cell-free extract
Procedure: as §2, §3, §4, §5, §6, §7, §8

[4] = biological target: T4, Escherichia coli aspartokinase III (AK III) mutant lysC* No. 169, 352 Thr→Ile, 369 Ser→Phe (Escherichia coli, UniProt P08660, S369F/T352I); experiment: as above; assay type: biochemical
T4 construct: made in house; host or cells: E. coli GT3 carrying mutant pLYSC1*; cell-free extract
Procedure: as §2, §3, §4, §5, §6, §7, §8

[5] = biological target: T5, Escherichia coli aspartokinase III (AK III) mutant lysC* No. 172, 318 Met→Ile, 349 Val→Met (Escherichia coli, UniProt P08660, M318I/V349M); experiment: as above; assay type: biochemical
T5 construct: made in house; host or cells: E. coli GT3 carrying mutant pLYSC1*; cell-free extract
Procedure: as §2, §3, §4, §5, §6, §7, §8

[6] = biological target: T6, Escherichia coli aspartokinase III (AK III) mutant lysC* No. 24, 352 Thr→Ile (Escherichia coli, UniProt P08660, T352I); experiment: as above; assay type: biochemical
T6 construct: made in house; host or cells: E. coli GT3 carrying mutant pLYSC1*; cell-free extract
Procedure: as §2, §3, §4, §5, §6, §7, §8

[7] = biological target: T7, Escherichia coli aspartokinase III (AK III) mutant lysC* No. 80, 352 Thr→Ile (Escherichia coli, UniProt P08660, T352I); experiment: as above; assay type: biochemical
T7 construct: made in house; host or cells: E. coli GT3 carrying mutant pLYSC1*; cell-free extract
Procedure: as §2, §3, §4, §5, §6, §7, §8

[8] = lysine, compared with wild type AK III

T1 sequence (P08660 2-449): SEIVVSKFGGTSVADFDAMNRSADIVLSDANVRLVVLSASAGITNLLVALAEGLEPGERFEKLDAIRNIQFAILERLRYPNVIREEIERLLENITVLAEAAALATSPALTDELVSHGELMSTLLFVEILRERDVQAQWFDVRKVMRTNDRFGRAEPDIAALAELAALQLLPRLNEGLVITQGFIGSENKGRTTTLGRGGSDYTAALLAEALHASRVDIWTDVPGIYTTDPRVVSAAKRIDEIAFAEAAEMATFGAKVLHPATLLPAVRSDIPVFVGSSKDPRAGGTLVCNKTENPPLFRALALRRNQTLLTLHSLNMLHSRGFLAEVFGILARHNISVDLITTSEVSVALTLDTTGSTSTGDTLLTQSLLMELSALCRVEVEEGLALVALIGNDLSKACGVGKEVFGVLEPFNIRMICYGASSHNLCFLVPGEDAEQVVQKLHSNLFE
T5 sequence (P08660 2-449 M318I/V349M): as the sequence (P08660 2-449) above, with M317I, V348M counted along it
T4 sequence (P08660 2-449 T352I/S369F): as the sequence (P08660 2-449) above, with T351I, S368F counted along it
T7 sequence (P08660 2-449 T352I): as the sequence (P08660 2-449) above, with T351I counted along it
T6 sequence (P08660 2-449 T352I): as the sequence (P08660 2-449) above, with T351I counted along it
T2 sequence (P08660 2-449 S345L): as the sequence (P08660 2-449) above, with S344L counted along it
T3 sequence (P08660 2-449 R34C/G323D): as the sequence (P08660 2-449) above, with R33C, G322D counted along it

For NCCSC[C@H](N)C(=O)O [AEC, S-2-aminoethylcysteine, reference compound], the growth (GT3/pLYSC1; 0.2 mM added) was “-”, the growth (GT3/pLYSC1; 0.4 mM added) was “-” and the growth (GT3/pLYSC1; 0.8 mM added) was “-”. The growth (GT3/pLYSC1; 1.5 mM added) was “-”, the growth (GT3/pLYSC1; 3 mM added) was “-” and the growth (GT3/pLYSC1; 6 mM added) was “-”. For the same molecule, the growth (GT3/pLYSC1; 12 mM added) was “-”, the growth (GT3/pLYSC1; 25 mM added) was “-” and the growth (GT3/pLYSC1; 50 mM added) was “-”. The MIC (GT3/pLYSC1) was about 200 µM (≈ 32.8 µg/mL), the growth (GT3/pLYSC2; 0.2 mM added) was “±” and the growth (GT3/pLYSC2; 0.4 mM added) was “±”. For the same molecule, the growth (GT3/pLYSC2; 0.8 mM added) was “±”, the growth (GT3/pLYSC2; 1.5 mM added) was “±” and the growth (GT3/pLYSC2; 3 mM added) was “±”. For the same molecule, the growth (GT3/pLYSC2; 6 mM added) was “-”, the growth (GT3/pLYSC2; 12 mM added) was “-” and the growth (GT3/pLYSC2; 25 mM added) was “-”. The growth (GT3/pLYSC2; 50 mM added) was “-”.

Molecule NCCCC[C@H](N)C(=O)O [lysine] has a pIC50 [1] of about 3.35, an inhibition at 5000 µM ([1]; 5 mM of lysine) of about 100% and an activity at 100000 µM ([1]; activity in the presence of 100 mM of lysine with respect to lysine-free reaction solution, read-out: Inhibition release (%)) of 0%. The inhibition ([2]; 100 mM of lysine) was “practically no inhibition”, the “50% inhibition concentration (fold)” value [2, 8] was at least 200 fold and the “Inhibition release (%)” value [3] was 59%. The inhibition ([4]; 100 mM of lysine) was “practically no inhibition”, the “50% inhibition concentration (fold)” value [4, 8] was at least 200 fold and the inhibition ([5]; 100 mM of lysine) was “practically no inhibition”. The “50% inhibition concentration (fold)” value [5, 8] was at least 200 fold, the inhibition ([6]; 100 mM of lysine) was “practically no inhibition” and the “50% inhibition concentration (fold)” value [6, 8] was at least 200 fold. The inhibition ([7]; 100 mM of lysine) was “practically no inhibition”, the “50% inhibition concentration (fold)” value [7, 8] was at least 200 fold and the growth (GT3/pLYSC1; 0.2 mM added) was “-”. The growth (GT3/pLYSC1; 0.4 mM added) was “-”, the growth (GT3/pLYSC1; 0.8 mM added) was “-” and the growth (GT3/pLYSC1; 1.5 mM added) was “-”. For the same molecule, the growth (GT3/pLYSC1; 3 mM added) was “-”, the growth (GT3/pLYSC1; 6 mM added) was “-” and the growth (GT3/pLYSC1; 12 mM added) was “-”. The growth (GT3/pLYSC1; 25 mM added) was “-”, the growth (GT3/pLYSC1; 50 mM added) was “-” and the growth (GT3/pLYSC1; 100 mM added) was “-”. The growth (GT3/pLYSC1; 200 mM added) was “-”, the MIC (GT3/pLYSC1) was about 200 µM (≈ 29.2 µg/mL) and the growth (GT3/pLYSC2; 0.2 mM added) was “+”. The growth (GT3/pLYSC2; 0.4 mM added) was “+”, the growth (GT3/pLYSC2; 0.8 mM added) was “+” and the growth (GT3/pLYSC2; 1.5 mM added) was “+”. The growth (GT3/pLYSC2; 3 mM added) was “+”, the growth (GT3/pLYSC2; 6 mM added) was “+” and the growth (GT3/pLYSC2; 12 mM added) was “+”. The growth (GT3/pLYSC2; 25 mM added) was “+”, the growth (GT3/pLYSC2; 50 mM added) was “+” and the growth (GT3/pLYSC2; 100 mM added) was “±”. The growth (GT3/pLYSC2; 200 mM added) was “-”.
